“And” between values parts separate entries of the source, which are not always exact repeats. Equal entries are not always repeated.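 Protocol summary: plate cells (96-well), add compound at 5 concentrations, incubate 48 h, interpolate endpoints linearly. Abbreviation: GI50, concentration required for 50% inhibition of growth. The concentration for full growth arrest is given as TGI.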
Columns and labels:
Assay in all cases: DTP human tumour cell line panel, 48 h
[1] = tested on: IGROV1 ovarian
[2] = tested on: A498 renal
[3] = tested on: NCI-H460 lung
[4] = tested on: OVCAR-3 ovarian
[5] = tested on: ACHN renal
[6] = tested on: RPMI-8226 leukemia
[7] = tested on: SK-MEL-28 melanoma
[8] = tested on: OVCAR-5 ovarian
[9] = tested on: MCF7 breast
[10] = tested on: DU-145 prostate

Cc1[nH]c(=O)nc(N/N=C/c2ccc(O)cc2)c1C(=O)Nc1ccc(Cl)cc1
TGI [1]: > 100 µM
TGI [2]: > 100 µM
TGI [3]: > 100 µM
TGI [4]: > 100 µM
TGI [5]: > 100 µM
TGI [6]: > 100 µM
TGI [7]: > 100 µM

CCN1CC2(C)CC[C@@H](OC)C34[C@@H]2[C@H](OC(C)=O)C2(OCO[C@@]25C[C@H](OC)C2C[C@]3(O)[C@@H]5[C@H]2O)[C@H]14
TGI [3]: > 100 µM
TGI [4]: > 100 µM
TGI [8]: > 100 µM
TGI [7]: > 100 µM

COC(=O)C1=C(O)C(C(=O)OC)[C@@]2(O)[C@@H](C(=O)OC)C(c3ccc(OC(=O)C(CC(C)C)NC(C)=O)cc3)C[C@@H]1[C@@H]2C(=O)OC (some centres not stated)
GI50 [1]: > 100 µM
TGI [1]: > 100 µM
GI50 [3]: 41.6 µM
TGI [3]: > 100 µM
GI50 [9]: 48.8 µM
TGI [9]: > 100 µM
GI50 [4]: > 100 µM
TGI [4]: > 100 µM
GI50 [5]: 41.9 µM
TGI [5]: > 100 µM
GI50 [6]: > 100 µM
TGI [6]: > 100 µM
GI50 [8]: 32.2 µM
TGI [8]: > 100 µM
GI50 [7]: > 100 µM
TGI [7]: > 100 µM

COc1ccc(-n2nc(C)c3c2N(C)C2(C)C[C@@H]4C3(C)[C@@H]3CC4(C2)N(C)c2c(c(C)nn2-c2ccc(OC)cc2)[C@H]3C)cc1 (some centres not stated)
GI50 [1]: 19.5 µM
TGI [1]: > 100 µM
GI50 [2]: 3.95 µM
TGI [2]: 26.9 µM
GI50 [3]: 3.69 µM
TGI [3]: > 100 µM
GI50 [9]: 4.02 µM
TGI [9]: > 100 µM
GI50 [4]: 7.14 µM
TGI [4]: > 100 µM
GI50 [10]: 23 µM
TGI [10]: > 100 µM
GI50 [5]: 6.13 µM
TGI [5]: > 100 µM
GI50 [8]: > 100 µM
TGI [8]: > 100 µM
GI50 [7]: 15.2 µM
TGI [7]: > 100 µM

O=C1c2ccccc2C(=O)c2c1ccc1c3ccccc3n(Cc3ccccc3)c21
TGI [1]: > 100 µM
TGI [3]: > 100 µM
TGI [4]: > 100 µM
TGI [5]: > 100 µM
TGI [6]: > 100 µM
TGI [8]: > 100 µM

CCC1NCC(=O)c2c1[nH]c1ccccc21 (configuration not stated)
TGI [1]: > 100 µM
TGI [2]: > 100 µM
TGI [3]: > 100 µM
TGI [4]: > 100 µM
TGI [5]: > 100 µM
TGI [6]: > 100 µM
TGI [8]: > 100 µM
TGI [7]: > 100 µM

CCC1(N2C(=O)c3c(F)c(F)c(F)c(F)c3C2=O)C(=O)NC(=O)N(c2ccccc2)C1=O (configuration not stated)
GI50 [2]: 12.2 µM
TGI [2]: 25.9 µM
GI50 [3]: 3.22 µM
TGI [3]: 11.5 µM
GI50 [9]: 2.21 µM
TGI [9]: 17 µM
GI50 [4]: 1.67 µM
TGI [4]: 4.1 µM
GI50 [10]: 4.87 µM
TGI [10]: 17.9 µM
GI50 [5]: 4.02 µM
TGI [5]: 14.9 µM
GI50 [6]: 0.331 µM
TGI [6]: 2.58 µM
GI50 [8]: 1.69 µM
TGI [8]: 3.43 µM
GI50 [7]: 2.79 µM
TGI [7]: 10.6 µM

CC(=O)Nc1ccc(C(=O)N2N=C(C)/C(=C/c3cccc(O)c3)C2=O)cc1
TGI [3]: > 100 µM
TGI [4]: > 100 µM
TGI [5]: > 100 µM
TGI [8]: > 100 µM
TGI [7]: > 100 µM

COC(=O)C1CCC(=NC2c3ccccc3-c3ccccc32)N1 (configuration not stated)
TGI [1]: > 100 µM
TGI [2]: > 100 µM
TGI [3]: > 100 µM
TGI [4]: > 100 µM
TGI [5]: > 100 µM
TGI [6]: > 100 µM
TGI [8]: > 100 µM
TGI [7]: > 100 µM

COC(=O)C(=O)C(C(=O)C(=O)Nc1ccccc1C(N)=O)c1nc2ccc(C(=O)c3ccccc3)cc2[nH]c1=O (configuration not stated)
TGI [1]: > 100 µM
TGI [2]: > 100 µM
TGI [3]: > 100 µM
TGI [5]: > 100 µM
TGI [6]: > 100 µM
TGI [8]: > 100 µM
TGI [7]: > 100 µM

O=C(Cc1nc2ccc([N+](=O)[O-])cc2[nH]c1=O)C(=O)Nc1cc(Cl)c(Cl)cc1Cl
TGI [1]: > 100 µM
TGI [2]: > 100 µM
TGI [3]: > 100 µM
TGI [9]: > 100 µM
TGI [4]: > 100 µM
TGI [10]: > 100 µM
TGI [5]: > 100 µM
TGI [8]: > 100 µM
TGI [7]: > 100 µM

C/C(=N\NC(=S)N1CCC(C2CCN(C(=S)N/N=C(\C)c3ccccn3)CC2)CC1)c1ccccn1
TGI [1]: > 100 µM
TGI [2]: > 100 µM
TGI [3]: > 100 µM
TGI [4]: > 100 µM
TGI [5]: > 100 µM
TGI [6]: > 100 µM
TGI [8]: > 100 µM
TGI [7]: > 100 µM

Clc1ccccc1C1=NN(c2ccccc2)C2c3cc(Br)ccc3OCC12 (configuration not stated)
TGI [1]: > 100 µM
TGI [2]: > 100 µM
TGI [3]: > 100 µM
TGI [4]: > 100 µM
TGI [5]: > 100 µM
TGI [6]: > 100 µM
TGI [8]: > 100 µM
TGI [7]: > 100 µM

CC(=O)N[C@@H]1CCC[C@H](C(=O)Nc2cc(-c3cnn4c3CC(C)(C)C4)c(Cl)cn2)C1
GI50 [1]: < 0.01 µM
TGI [1]: > 100 µM
GI50 [2]: < 0.01 µM
TGI [2]: 0.0313 µM
GI50 [3]: < 0.0115 µM
TGI [3]: 12.4 µM
GI50 [9]: < 0.01 µM
TGI [9]: 40.6 µM
GI50 [10]: 0.0102 µM
TGI [10]: > 100 µM
GI50 [5]: < 0.015 µM
TGI [5]: > 100 µM
GI50 [6]: 0.0158 µM
TGI [6]: 0.0703 µM
GI50 [8]: < 0.01 µM
TGI [8]: > 100 µM
GI50 [7]: < 0.0133 µM
TGI [7]: 0.342 µM

CCCCCCCCC(=O)NCCCNCCCNC(=O)CCCCCCCC
TGI [1]: 10.6 µM
TGI [2]: 32.1 µM
TGI [3]: 6.57 µM
TGI [4]: 30.5 µM
TGI [5]: 16.1 µM
TGI [6]: 11 µM
TGI [8]: 28.5 µM
TGI [7]: 25.6 µM

O=C1/C(=C/c2ccccc2)CN(C(=O)Oc2ccc([N+](=O)[O-])cc2)C/C1=C\c1ccccc1
TGI [4]: 5.58 µM
GI50 [5]: 4.94 µM
GI50 [6]: 0.0844 µM
TGI [6]: 0.428 µM and 0.424 µM
TGI [7]: 7.65 µM

Cc1csc(Nc2nc(-c3cccc(Cl)c3)nc(C(Cl)(Cl)Cl)n2)n1
GI50 [1]: 15.7 µM
TGI [1]: > 33.3 µM
GI50 [3]: 1.22 µM
TGI [3]: 5.42 µM
GI50 [9]: 1.46 µM
TGI [9]: > 33.3 µM
GI50 [4]: 1.06 µM
TGI [4]: 3.53 µM
GI50 [10]: 0.713 µM
TGI [10]: 2.01 µM
GI50 [5]: 0.888 µM
TGI [5]: 3.46 µM
GI50 [6]: 1.22 µM
TGI [6]: > 33.3 µM
GI50 [8]: 8.86 µM
TGI [8]: > 33.3 µM
GI50 [7]: 3.53 µM
TGI [7]: > 33.3 µM

O=C1c2cccc3cccc(c23)C(=O)N1CCCN1CCN(CCCN2C(=O)c3cccc4cccc(c34)C2=O)CC1
TGI [1]: > 100 µM
TGI [2]: > 100 µM
TGI [3]: > 100 µM
TGI [4]: > 100 µM
TGI [5]: > 100 µM
TGI [6]: > 100 µM
TGI [8]: > 100 µM

Cc1c(-c2coc(-c3ccc(Cl)cc3)n2)c(=O)n(-c2ccccc2)n1C
TGI [1]: > 100 µM
TGI [2]: > 100 µM
TGI [3]: > 100 µM
TGI [4]: > 100 µM
TGI [5]: > 100 µM
TGI [6]: > 100 µM
TGI [8]: > 100 µM
TGI [7]: > 100 µM

Cc1nc(C(N)=S)sc1C(=O)CC(=O)C(=O)Nc1cccc(Cl)c1C
TGI [1]: > 100 µM
TGI [2]: > 100 µM
TGI [3]: > 100 µM
TGI [9]: > 100 µM
TGI [4]: > 100 µM
TGI [5]: > 100 µM
TGI [6]: > 100 µM
TGI [8]: > 100 µM
TGI [7]: > 100 µM

COc1ccccc1NC(=O)C(=O)C1C(=O)Nc2ccccc2S1=O (configuration not stated)
TGI [1]: > 100 µM
TGI [2]: > 100 µM
TGI [3]: > 100 µM
TGI [4]: > 100 µM
TGI [5]: > 100 µM
TGI [8]: > 100 µM
TGI [7]: > 100 µM

Reference: PubChem BioAssay (NCI)
